Measured values taken from US20260314597A1, “A NOVEL APPROACH TO INTERFERE IN THE PHENYLPROPANOID BIOSYNTHETIC PATHWAY TO REDUCE PINK-RIB DISORDER IN FRESH LETTUCE” (University of Florida Research Foundation, Inc., priority 2022, published 2026).
Entries after “also recorded” stand apart in the source; their conditions may differ.

How the values were obtained:
fresh lettuce midribs = settings: literature treatments; cited from earlier work
[1] = system: iceberg and Romaine lettuce midribs; assay: Visual (subjective) pink rib development in wounded, immersed lettuce midribs stored at 5° C.; assay type: in vivo; settings: for reduction of pink rib severity: naringenin (1.8 mM) and serotonin, reason for not imaging
Experimental: Six preliminary experiments were performed to determine treatment conditions for the three final experiments reported here. It was determined that the method developed by Cantwell (2016) induced pink rib discoloration in lettuce midribs during storage at 5° C. via mimicking mechanical damage and was, therefore, selected for use in all preliminary and final tests. […] Concentrations evaluated were: L-cysteine (0.4, 0.8, 2.1, 4.1, 8.3 mM), naringenin (0.2, 0.4, 0.9, 1.8, 3.7 mM), serotonin (2.8, 5.7 mM), and melatonin (0.2, 0.4, 1.1, 2.2, 4.3 mM) (data not presented). […] Therefore, this study employed the one or two concentrations for each compound with the greatest potential efficacy in three independent tests, Test 1 to 3 (Table 1).
For Test 1, the evaluations for pink rib development, protein quantification, and enzyme activity were conducted with Romaine and iceberg lettuce heads (36 heads per type; cultivars unknown) purchased (February 2020) upon arrival at a local grocery store in Gainesville, FL, and immediately transported to the Postharvest Horticulture Laboratory at the University of Florida in Gainesville, FL. For Test 2, metabolite extraction and detection were conducted with commercially grown, harvested, and cooled Romaine (‘Tall Guzmaine’) and iceberg (‘Chosen’) lettuce (December 2020) grown in Belle Glade, FL. For Test 3, untargeted metabolomics was performed using commercially grown, harvested, and cooled Romaine (‘Manatee’) lettuce grown in Belle Glade, FL (April 2021). To keep the lettuce head samples cool while preventing freeze damage during transport, a 3- to 6-inch layer of crushed ice was placed on the bottom of each 114-L cooler. A piece of waxed, corrugated fiberboard was placed on top of the ice prior to packing with the lettuce samples for transport the same day to the Postharvest Horticulture Laboratory in Gainesville (approximately 4 h distant).
In all tests, experimental setup began immediately upon arrival to the laboratory. 90 outer leaves were randomly selected from 18 to 22 lettuce heads that met commercial and damage-free quality standards. A midrib segment (12.5 cm) was excised from the center of each leaf and excess leaf blade tissue was trimmed parallel to the midrib. This procedure was adapted from the wounding procedure of Cantwell (2016). Each midrib was then partially sliced transversally at 1.3-cm increments along the midrib. Midribs (n=15) were immediately immersed for 30 s in one of five treatment solutions: deionized water (wounded control), L-cysteine (4.1 mM), naringenin (1.8 mM) with 20% dimethyl sulfoxide (DMSO), serotonin (2.8 or 5.7 mM) or melatonin (4.3 mM) with 0.50% DMSO. Immediately following immersion, the midribs for each treatment were patted dry using paper towels and placed (n=5) in a breathable, high-density polyethylene bag (n=3) (Narrow Profile Produce Bags [14×18 inches] Model No. S-19156, Uline®, Pleasant Prairie, WI). Unwounded control midribs were stored in the same manner. To allow for direct comparison, each cut site on each midrib was assigned an initial discoloration value on day 1 based on the coloration of the rib. Samples were stored at 5° C. with 95-98% relative humidity (RH) for 5 d, simulating commercial storage.
All chemicals were of laboratory or reagent grade from Alfa Aesar (Thermo Fisher Scientific, Ward Hill, MA, USA) or Phyto Technology Laboratories (Shawnee Mission, KS, USA). L-cysteine (4.1 mM) solution was prepared by dissolving […] in 100 ml deionized water. Naringenin (1.8 mM) solution was prepared by dissolving […] in 20 mL of DMSO and diluting to a 100 mL volume with deionized water. A stock solution of serotonin (5.7 mM) was prepared by dissolving 100 mg of serotonin in 100 ml of deionized water; a second solution of serotonin (2.8 mM) was prepared by diluting the stock solution two-fold with deionized water. […]

PAL = settings: naringenin; cited from earlier work
[2] = naringenin; in vitro for lettuce; cited from earlier work
PPO = settings: role: substrate; lettuce tissues; cited from earlier work
apple and pear discs = settings: serotonin 1 mM, 4° C., cited from earlier work

## O=C(O)CN(CCN(CC(=O)O)CC(=O)O)CC(=O)O [ethylenediaminetetracetic acid (EDTA), ethylenediaminetetracetic acid]
Fresh lettuce midribs
  effectiveness in reducing pink rib discoloration: slightly effective or completely ineffective

## O=C(O)c1ccc(O)cc1 [p-hydroxybenzoic acid]
Fresh lettuce midribs
  effectiveness in reducing pink rib discoloration: slightly effective or completely ineffective

## N[C@@H](CCC(=O)N[C@@H](CS)C(=O)NCC(=O)O)C(=O)O [glutathione]
Fresh lettuce midribs
  effectiveness in reducing pink rib discoloration: slightly effective or completely ineffective

## C=C [ethylene]
Fresh lettuce midribs
  effectiveness in reducing pink rib discoloration: slightly effective or completely ineffective

## CC1=CC1 [1-methylcyclopropene]
Fresh lettuce midribs
  effectiveness in reducing pink rib discoloration: slightly effective or completely ineffective

## [Cl-].[Na+] [NaCl]
Fresh lettuce midribs
  effectiveness in reducing pink rib discoloration: slightly effective or completely ineffective

## O=C1C[C@@H](c2ccc(O)cc2)Oc2cc(O)cc(O)c21 [naringenin]
[1]; iceberg, naringenin 1.8 mM, 5 d at 5° C.
  pink rib severity (visual rating): moderately severe (4=moderately severe)
[1]; iceberg, naringenin immersion up to 3.7 mM, 5 d at 5° C.
  pink rib severity (visual rating): moderately severe (4=moderately severe)
[1]
  reduction of pink rib severity: unsuccessful reduction of pink rib severity; also recorded: equally unsuccessful
[1]; naringenin up to 3.7 mM, 5 d at 5° C.
  effect on pink rib: did not successfully reduce pink rib
PAL
  PAL activity and subsequent development of phenylpropanoids: represses PAL activity and subsequent development of phenylpropanoids
[2]
  antioxidant capacity (FRAP): increase in antioxidant capacity

## CCCCCCc1ccc(O)cc1O [4-hexylresorcinol]
Fresh lettuce midribs
  effectiveness in reducing pink rib discoloration: slightly effective or completely ineffective

## O=C(O)CC(O)(CC(=O)O)C(=O)O [citric acid]
Fresh lettuce midribs
  effectiveness in reducing pink rib discoloration: slightly effective or completely ineffective

## O=C(/C=C/c1ccc(O)c(O)c1)O[C@@H]1C[C@](O)(C(=O)O)C[C@@H](O)[C@H]1O [chlorogenic acid]
PPO
  specificity to PPO: greatest specificity to PPO

## NCCc1c[nH]c2ccc(O)cc12 [serotonin]
[1]; Romaine, serotonin 2.8 or 5.7 mM, 5 d at 5° C.
  pink rib severity (visual rating): moderately severe (4=moderately severe)
[1]; iceberg, serotonin 2.8 or 5.7 mM, 5 d at 5° C.
  pink rib severity (visual rating): moderate (3=moderate)
[1]
  reduction of pink rib severity: unsuccessful reduction of pink rib severity
[1]; serotonin, iceberg and Romaine, 5 d at 5° C.
  effect on pink rib development: did not reduce pink rib development in either lettuce type
Apple and pear discs; 30-min submersion
  extension of bright appearance: up to 6 months
Apple and pear discs; 30 min
  browning inhibition compared with ascorbic acid: more effective than ascorbic acid
  duration of browning inhibition: up to 24 h
